Assay results published in patent US6825018B1, “Sorbitol dehydrogenase, gene encoding the same and use thereof” (priority 1999, dated 2004).

Key:
Format in all cases: biochemical, Gluconobacter oxydans G624
[1] = biological target: T1, His-tagged SLDH (Gluconobacter oxydans, UniProt Q9KWR5); experiment: SLDH activity: coenzyme dependency and active pH range (increase in NAD(P)H, absorbance at 340 nm); conditions: for Activity: substrate sorbitol, 25° C., coenzyme varied
Experimental: To a solution containing 0.1 ml of 50 mM NAD^+ (or NADP^+), 0.2 ml of 500 mM buffer, 10 μl of His-tagged SLDH solution (2.1 μg protein) prepared in Example 2(4) and distilled water (0.29 ml) was added to 500 mM sorbitol (0.4 ml) to start the reaction (25° C.), and increase in NADH (or NADPH) was measured by a spectrophotometer (UV-2200; Shimadzu) based on absorbance at 340 nm as an index. For the reaction solutions having pH 10.1 and pH 9.0, glycine/NaOH buffer was used, and for reaction solutions having pH 8.0 and pH 7.0, potassium phosphate buffer was used. The enzyme activity (1 unit) was defined to be an amount to generate 1 μmol of NADH (or NADPH) per minute. The molecular extinction coefficient of NAD(P)H was 6.3 mM^−1 cm^−1. The protein amount was measured with bovine serum albumin (BSA) as a standard by the Lowry method.

[2] = biological target: T1, His-tagged SLDH; experiment: SLDH activity: substrate specificity; conditions: glycine/NaOH buffer pH 10.1, coenzyme NADP+; for Activity: substrate varied
[3] = biological target: T1, His-tagged SLDH; experiment: Confirmation of SLDH activity: reaction of purified His-tagged SLDH with sorbitol, product analysis; conditions: 10 mM (1.82 mg/ml) sorbitol, pH 10.1, 5 mM NADP^+, 25° C., 24 hours
Experimental: In the same manner as in the above-mentioned (2) except that the cell-free extract to be applied was by 10 ml, the resin after His-tagged SLDH adsorption was washed 6 times, and His-tagged SLDH was eluted with 50 mM imidazole and 100 mM NaCl-containing 20 mM Tris-HCl (5 ml, pH 8.0), His-tagged SLDH was purified. The obtained His-tagged SLDH was reacted with sorbitol and the resulting product was analyzed. The composition of the reaction solution (2 ml) was 10 mM (1.82 mg/ml) sorbitol, 0.1 M glycine/NaOH buffer (pH 10.1), 5 mM NADP^+ and His-tagged SLDH 0.2 ml (41.4 μg protein) and the reaction was carried out at 25° C. for 24 hours. […] Thus, His-tagged SLDH purified by cobalt type IMAC was confirmed to be sorbitol dehydrogenase that oxidizes sorbitol and generates sorbose.

[4] = pH 7.0, potassium phosphate buffer
[5] = pH 8.0, potassium phosphate buffer

T1 sequence (Q9KWR5 entry or part of it): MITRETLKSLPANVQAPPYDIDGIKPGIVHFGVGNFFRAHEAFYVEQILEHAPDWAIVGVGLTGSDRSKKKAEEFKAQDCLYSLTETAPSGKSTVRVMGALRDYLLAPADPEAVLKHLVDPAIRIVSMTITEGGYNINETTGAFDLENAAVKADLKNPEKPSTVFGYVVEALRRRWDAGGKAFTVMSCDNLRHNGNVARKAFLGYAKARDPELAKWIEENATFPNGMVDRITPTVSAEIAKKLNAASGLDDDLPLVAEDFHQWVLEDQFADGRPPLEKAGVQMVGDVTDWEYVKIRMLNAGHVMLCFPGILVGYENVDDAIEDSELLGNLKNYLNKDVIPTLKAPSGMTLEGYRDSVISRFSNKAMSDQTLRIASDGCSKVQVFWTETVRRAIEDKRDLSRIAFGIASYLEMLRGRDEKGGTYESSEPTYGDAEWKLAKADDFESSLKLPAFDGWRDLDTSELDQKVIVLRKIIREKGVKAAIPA

Row | Structure (SMILES) | Use as substrate by SLDH (in words) [2] | Activity [2] [U/mg protein] | other results
1 | NC(=O)c1ccc[n+]([C@@H]2O[C@H](COP(=O)([O-])OP(=O)(O)OC[C@H]3O[C@@H](n4cnc5c(N)ncnc54)[C@H](OP(=O)(O)O)[C@@H]3O)[C@@H](O)[C@H]2O)c1 [NADP^+] | – | – | Coenzyme specificity (in words) ([1]; NAD^+ versus NADP^+ as coenzyme): higher specificity; Activity [1, 4]: 4.2 U/mg protein; Activity [1, 5]: 22.9 U/mg protein; Activity ([1]; pH 9.0, glycine/NaOH buffer): 30.0 U/mg protein; Activity ([1]; pH 10.1, glycine/NaOH buffer): 130.2 U/mg protein
2 | NC(=O)c1ccc[n+]([C@@H]2O[C@H](COP(=O)([O-])OP(=O)(O)OC[C@H]3O[C@@H](n4cnc5c(N)ncnc54)[C@H](O)[C@@H]3O)[C@@H](O)[C@H]2O)c1 [NAD^+] | – | – | Activity [1, 4]: 0.1 U/mg protein; Activity [1, 5]: 1.2 U/mg protein; Activity ([1]; pH 9.0, glycine/NaOH buffer): 3.4 U/mg protein; Activity ([1]; pH 10.1, glycine/NaOH buffer): 8.1 U/mg protein
3 | OC[C@@H](O)C(O)[C@H](O)CO [arabitol] | could utilize | 88.1 | –
4 | OCC(O)CO [glycerol] | no action | 0 | –
5 | O[C@H]1[C@H](O)[C@@H](O)[C@H](O)[C@@H](O)[C@H]1O [inositol] | no action | 0 | –
6 | OC[C@@H](O)[C@@H](O)[C@H](O)[C@H](O)CO [mannitol] | could utilize | 85.7 | –
7 | OC[C@@H](O)[C@@H](O)[C@@H](O)CO [ribitol] | no action | 0 | –
8 | OC[C@@H](O)[C@@H](O)[C@H](O)[C@@H](O)CO [sorbitol] | – | 130.2 | conversion efficiency (sorbitol to sorbose) ([3]; 41.4 μg protein): 62%; sorbitol remaining [3]: 0.70 mg/mL
9 | O=C(CO)[C@H](O)[C@@H](O)[C@H](O)CO [sorbose] | – | – | sorbose generated [3]: 1.12 mg/mL
10 | OC[C@@H](O)[C@H](O)[C@@H](O)CO [xylitol] | no action | 0 | –
